We go through 11 molecules from ChEMBL document CHEMBL2311443, “Exploring amino acids derivatives as potent, selective, and direct agonists of sphingosine-1-phosphate receptor subtype-1” (Bioorg Med Chem Lett, 2013).

For experiment [1], the target named is T1, Sphingosine 1-phosphate receptor 1 (Homo sapiens, UniProt P21453). Briefly: Displacement of [33P]S1P from human S1P1 receptor expressed in HEK293T cells after 1 hr by liquid scintillation counting analysis. It is filed as cell-based, HEK-293T.
T1 sequence (P21453 whole entry): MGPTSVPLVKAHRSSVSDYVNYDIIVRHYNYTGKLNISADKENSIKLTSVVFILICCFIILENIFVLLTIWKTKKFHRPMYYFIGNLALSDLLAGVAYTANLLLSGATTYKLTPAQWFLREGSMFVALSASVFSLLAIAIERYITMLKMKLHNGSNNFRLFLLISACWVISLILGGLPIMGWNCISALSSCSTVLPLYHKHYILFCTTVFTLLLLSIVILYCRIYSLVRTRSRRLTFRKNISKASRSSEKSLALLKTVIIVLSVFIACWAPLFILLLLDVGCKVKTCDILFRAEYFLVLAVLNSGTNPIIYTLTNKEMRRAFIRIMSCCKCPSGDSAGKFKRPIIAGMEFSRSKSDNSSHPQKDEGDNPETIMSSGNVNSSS
For experiment [2], the target named is T2, Sphingosine 1-phosphate receptor 3 (Homo sapiens, UniProt Q99500). The experiment is described as follows: Displacement of [33P]S1P from human S1P3 receptor expressed in HEK293T cells after 1 hr by liquid scintillation counting analysis. It is filed as cell-based, HEK-293T.
T2 sequence (Q99500 whole entry): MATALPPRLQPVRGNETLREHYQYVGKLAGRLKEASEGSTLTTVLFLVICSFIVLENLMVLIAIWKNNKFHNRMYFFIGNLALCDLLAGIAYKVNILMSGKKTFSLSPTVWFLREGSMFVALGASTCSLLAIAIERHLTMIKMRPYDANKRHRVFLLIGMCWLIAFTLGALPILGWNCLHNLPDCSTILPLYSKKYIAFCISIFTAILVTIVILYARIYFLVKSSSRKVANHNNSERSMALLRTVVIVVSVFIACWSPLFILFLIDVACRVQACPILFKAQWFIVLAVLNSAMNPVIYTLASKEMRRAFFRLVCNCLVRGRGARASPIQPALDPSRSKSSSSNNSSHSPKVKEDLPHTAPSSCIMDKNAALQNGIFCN
Experiment [3] addresses T2, Sphingosine 1-phosphate receptor 3. Briefly: Agonist activity at human S1P3 receptor expressed in HEK293T cells assessed as stimulation of [35S]GTPgammaS binding. It is filed as functional, cell-based, HEK-293T. (In general: GTPγS resists hydrolysis and so accumulates on activated G proteins.)
The species named for experiment [4] is Homo sapiens. The experiment is described as follows: Selectivity index, ratio of EC50 for human S1P3 to EC50 for human S1P1.
Experiment [5] addresses T1, Sphingosine 1-phosphate receptor 1. Briefly: Agonist activity at human S1P1 receptor expressed in HEK293T cells assessed as stimulation of [35S]GTPgammaS binding. It is filed as functional, cell-based, HEK-293T.
In experiment [6] the test system is Mus musculus. Briefly: Immunomodulatory activity in C57Bl/6 mouse assessed as induction of lymphopenia at 10 mg/kg, po measured after 6 hrs. It is filed as functional.
Experiment [7] concerns Mus musculus. Briefly: Immunomodulatory activity in C57Bl/6 mouse assessed as induction of lymphopenia at 20 mg/kg, iv measured after 6 hrs. It is filed as functional.
The test system of experiment [8] is Mus musculus. Briefly: Immunomodulatory activity in C57Bl/6 mouse assessed as induction of lymphopenia at 1 mg/kg, po measured after 6 hrs. It is filed as functional.
The species entered for experiment [9] is Homo sapiens. Briefly: Selectivity index, ratio of IC50 for human S1P3 to IC50 for human S1P1.

As usually defined, the IC50 is the concentration that inhibits the measured activity by half. Read a high IC50 as a need for much substance. By EC50 is commonly meant the concentration that produces a half-maximal response. With `N[C@@H](CC(=O)O)c1nc(-c2ccc(OCc3ccc(-c4ccccc4)cc3)c(C(F)(F)F)c2)c[nH]1`, the results for the IC50 in [1] and in experiment [2] were 17 nM and more than 10000 nM, respectively. Moreover, the results for the EC50 in [3] and in experiment [5] were more than 3000 nM and 161 nM, respectively. The Ratio EC50 in the experiment listed under Homo sapiens [4] was more than 18.6.

As to `C[C@](N)(CC(=O)O)c1nc(-c2ccc(OCc3ccc(-c4ccccc4)cc3)c(C(F)(F)F)c2)c[nH]1`, the 50% inhibitory concentration (IC50) in [1] is 82 nM; in experiment [2], more than 10000 nM. Moreover, the EC50 in experiment [3] was more than 3000 nM; in [5], 700 nM. Besides, the Ratio EC50 in the experiment listed under Homo sapiens [4] was more than 4.

In the case of `CCCCCCCCOc1ccc(NC(=O)[C@@H](N)CCC(=O)O)cc1`, the figures for the concentration for half-maximal inhibition (IC50) in experiment [1] and in [2] were 92 nM and 10000 nM, respectively. Further, in the experiment with Mus musculus [6], the Activity is 44%.

For `O=C(O)CCc1nc(-c2ccc(OCc3ccc(-c4ccccc4)cc3)c(C(F)(F)F)c2)c[nH]1`, the 50% inhibitory concentration (IC50) in [1] was 3000 nM; in experiment [2], more than 10000 nM.

Regarding `CCCCCCCCOc1ccc(NC(=O)[C@@H](N)CC(=O)O)cc1C(F)(F)F`, the values for the IC50 in [1] and in experiment [2] were 53 nM and more than 10000 nM, respectively. The results for the Activity in the experiment on Mus musculus [7] and in the experiment on Mus musculus [6] were 60% and 33%, respectively. Besides, the EC50 in experiment [3] is more than 3000 nM; in experiment [5] it was 231 nM. Moreover, the Ratio EC50 in the experiment listed under Homo sapiens [4] was more than 13.

On to `CCCCCCCCc1ccc(NC(=O)[C@@](C)(N)CC(=O)O)cc1C(F)(F)F`, for which the IC50 in [1] is 370 nM; in experiment [2], more than 10000 nM.

On to `CCCCCCCCc1ccc(CCC(N)(CO)CO)cc1` [FINGOLIMOD], for which, in the experiment with Mus musculus [8], the Activity is 80%.

On to `CCCCCCCCOc1ccc(NC(=O)[C@@H](N)CC(=O)O)cc1`, for which the IC50 in [1] is 14.4 nM; in experiment [2], 1050 nM. For the same molecule, the 50% effective concentration (EC50) amounted to 1800 nM in experiment [3] and 164 nM in [5]. The Ratio EC50 in the experiment filed under Homo sapiens [4] was 11. Also, the Activity with Mus musculus [6] is 57%. Besides, the Ratio IC50 in the experiment filed under Homo sapiens [9] stood at 73.

`CCCCCCCCOc1ccc(NC(=O)[C@@](C)(N)CCC(=O)O)cc1`: the IC50 in [1] was 77 nM; in [2], 10000 nM.

Regarding `CCCCCCCCOc1ccc(NC(=O)[C@@](C)(N)CC(=O)O)cc1C(F)(F)F`, the concentration for half-maximal inhibition (IC50) was 95 nM in [1] and more than 10000 nM in [2]. Moreover, the concentration giving a half-maximal response (EC50) is more than 3000 nM in [3] and 135 nM in experiment [5]. In addition, in the experiment listed under Homo sapiens [4], the Ratio EC50 is more than 22. In addition, in the experiment on Mus musculus [6], the Activity was 24%.

As for `CCCCCCCCOc1ccc(NC(=O)[C@@](C)(N)/C=C/C(=O)O)cc1`, the results for the concentration for half-maximal inhibition (IC50) in [1] and in experiment [2] were 74 nM and 10000 nM, respectively. In addition, the Activity in the experiment on Mus musculus [6] came out at 25%.
